Measurements as given in the supplement of paper PMC5908809.

Key:
[1] = test system: IMC-1 (IL-2 20 ng/mL); experiment: drug sensitivity score (DSS) (DSS units); higher = more sensitive; extreme values may be limits of the assay; conditions: 72 h
[2] = test system: KHYG-1 (IL-2 2.5 ng/mL); experiment: as above; conditions: 72 h
[3] = test system: normal primary NK cells, pool 3 (3 donors) (IL-2 2.5 ng/mL); experiment: as above; conditions: 72 h
[4] = test system: normal primary NK cells, pool 1 (3 donors), resting (IL-2 0 ng/mL); experiment: as above; conditions: 72 h
[5] = test system: NK-YS (IL-2 2.5 ng/mL); experiment: as above; conditions: 72 h
[6] = test system: DERL-7 (IL-2 2.5 ng/mL); experiment: as above; conditions: 72 h
[7] = test system: normal primary NK cells, pool 1 (3 donors) (IL-2 2.5 ng/mL); experiment: as above; conditions: 72 h
[8] = test system: normal primary NK cells, pool 2 (3 donors) (IL-2 2.5 ng/mL); experiment: as above; conditions: 72 h
[9] = test system: NKL (IL-2 2.5 ng/mL); experiment: as above; conditions: 72 h
[10] = test system: KAI3 (IL-2 2.5 ng/mL); experiment: as above; conditions: 72 h
[11] = test system: NK-92 (IL-2 2.5 ng/mL); experiment: as above; conditions: 72 h
[12] = test system: SNK-6 (IL-2 2.5 ng/mL); experiment: as above; conditions: 72 h
[13] = test system: YT (IL-2 2.5 ng/mL); experiment: as above; conditions: 72 h
[14] = test system: normal NK cells expanded with K562-aAPC; experiment: as above; conditions: 72 h; IL-2 2.5 ng/mL
Protocol: (§1)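 Drug sensitivity and resistance testing on K562-aAPC-expanded normal NK cells: 5 concentrations (10-fold steps over a 10,000-fold range), 72 h at 37 °C, viability by CellTiter-Glo normalised to DMSO and benzethonium chloride controls; DSS from the fitted curve.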

[15] = test system: normal NK cells expanded with K562-aAPC; experiment: percent inhibition of viability; higher = more inhibition; conditions: 72 h, IL-2 2.5 ng/mL
Protocol: as §1

[16] = test system: IMC-1 (IL-2 20 ng/mL); experiment: as above; conditions: 72 h
[17] = test system: KHYG-1 (IL-2 2.5 ng/mL); experiment: as above; conditions: 72 h
[18] = test system: normal primary NK cells, pool 3 (3 donors) (IL-2 2.5 ng/mL); experiment: as above; conditions: 72 h
[19] = test system: normal primary NK cells, pool 1 (3 donors), resting (IL-2 0 ng/mL); experiment: as above; conditions: 72 h
[20] = test system: NK-YS (IL-2 2.5 ng/mL); experiment: as above; conditions: 72 h
[21] = test system: DERL-7 (IL-2 2.5 ng/mL); experiment: as above; conditions: 72 h
[22] = test system: normal primary NK cells, pool 1 (3 donors) (IL-2 2.5 ng/mL); experiment: as above; conditions: 72 h
[23] = test system: normal primary NK cells, pool 2 (3 donors) (IL-2 2.5 ng/mL); experiment: as above; conditions: 72 h
[24] = test system: NKL (IL-2 2.5 ng/mL); experiment: as above; conditions: 72 h
[25] = test system: KAI3 (IL-2 2.5 ng/mL); experiment: as above; conditions: 72 h
[26] = test system: NK-92 (IL-2 2.5 ng/mL); experiment: as above; conditions: 72 h
[27] = test system: SNK-6 (IL-2 2.5 ng/mL); experiment: as above; conditions: 72 h
[28] = test system: YT (IL-2 2.5 ng/mL); experiment: as above; conditions: 72 h

CCn1c(-c2nonc2N)nc2cnc(Oc3cccc(NC(=O)c4ccc(OCCN5CCOCC5)cc4)c3)cc21 (max concentration tested 10000 nM)
Conditions	drug sensitivity score
[1]	2.4
[2]	6.96
[3]	5.91
[4]	4.87
[5]	12.6
[6]	18.2
[7]	6.54
[8]	4.86
[9]	5.93
[10]	9.52
[11]	12.4
[12]	19.4
[13]	2.8
[14]	3.71

percent inhibition of viability [%]
Conditions	1 nM	10 nM	100 nM	1000 nM	10000 nM
[15]	7.28	-0.78	-0.39	9.1	43.7
[16]	-0.83	-2.25	6.95	14.1	26.8
[17]	1.19	3.45	16.6	24.8	68.2
[18]	-9.45	-1.75	4.61	14.9	64.5
[19]	-4.42	-15.8	7.47	11.9	54.7
[20]	-0.26	-0.53	30.8	48.4	41.9
[21]	1.35	15.3	42.9	62.8	72.7
[22]	-7.22	2.09	6.8	18.7	70
[23]	-8.71	-2.3	9.01	9.21	60.8
[24]	-13.6	-19.1	-8.42	24	52.5
[25]	-3.04	-8.72	11.1	37.2	95
[26]	-3.47	11.4	34.4	37.1	74
[27]	-9.46	8.6	49.6	70.1	55.5
[28]	1.84	-0.78	1.36	15.7	28.5

CN(c1ccccc1CNc1nc(Nc2ccc3c(c2)CC(=O)N3)ncc1C(F)(F)F)S(C)(=O)=O (max concentration tested 10000 nM)
Conditions	drug sensitivity score
[1]	11.1
[2]	14.9
[3]	8.12
[4]	3.72
[5]	11.6
[6]	14.4
[7]	10.5
[8]	8.64
[9]	13.3
[10]	9.97
[11]	8.85
[12]	5.93
[13]	9.64
[14]	12.4

percent inhibition of viability [%]
Conditions	1 nM	10 nM	100 nM	1000 nM	10000 nM
[15]	-7.88	-4.41	-2.88	58	101
[16]	-8.05	-9.43	-5.71	42.5	100
[17]	3.44	-1.15	1.69	81.4	109
[18]	-4.56	-2.11	-3.97	15.6	100
[19]	-21.8	-18.3	-4.27	-35.7	91.4
[20]	-1.08	-5.55	-3.8	48.1	106
[21]	-11.5	1.19	-8.22	78.2	101
[22]	4.57	-5.98	14.5	42.7	99.6
[23]	-24.5	-16.5	-8.34	20.1	98.1
[24]	-5.61	-8.98	4.68	65.6	109
[25]	2.15	-4.73	-2.81	30.6	106
[26]	-16.5	-24	-36	20.4	108
[27]	-0.86	-15.1	-15.1	15.3	64.4
[28]	0.31	-4.2	-5.3	27.2	109

CN(c1ncccc1CNc1nc(Nc2ccc3c(c2)CC(=O)N3)ncc1C(F)(F)F)S(C)(=O)=O (max concentration tested 10000 nM)
Conditions	drug sensitivity score
[1]	5.8
[2]	10.8
[3]	4.64
[4]	3.17
[5]	9.57
[6]	8
[7]	7.02
[8]	4.9
[9]	8.95
[10]	7.77
[11]	5.49
[12]	3.56
[13]	9.01
[14]	6.5

percent inhibition of viability [%]
Conditions	1 nM	10 nM	100 nM	1000 nM	10000 nM
[15]	-0.87	-5.24	-0.38	6.43	99.8
[16]	-1.02	-1.57	1.51	2.71	97.8
[17]	1.46	-1.82	-1.38	42.5	95.7
[18]	-12.7	-6.19	-9.86	-12.6	97.7
[19]	-20.5	-23.2	-40	-70.9	88.9
[20]	1.14	-3.29	-8.54	31.5	92.8
[21]	-3.04	-1.94	-4.92	14.9	99.9
[22]	-2.69	-13.7	-10.8	10	97.2
[23]	-12.4	-9.66	-11.1	-4.87	94.8
[24]	-0.23	-12.4	-5.82	24.1	95
[25]	-4.38	-3.17	-1.99	15.1	94.9
[26]	-15.3	-22	-13	1.77	94.6
[27]	8.22	-2.6	-15.8	2.42	59.8
[28]	2.65	-2.39	-3.31	24.6	95.2

Cn1cc(C2=Nc3cc(NC(=O)C(N)C4CCCCC4)cc4c3C2=CNNC4=O)cn1 (stereo unspecified) (max concentration tested 10000 nM)
Conditions	drug sensitivity score
[1]	19.1
[2]	22.6
[3]	6.18
[4]	0
[5]	15.2
[6]	11.1
[7]	2.92
[8]	6.1
[9]	11.7
[10]	19.7
[11]	14.7
[12]	18
[13]	15
[14]	11.4

percent inhibition of viability [%]
Conditions	1 nM	10 nM	100 nM	1000 nM	10000 nM
[15]	-1.76	0.06	11.6	53.4	73.3
[16]	-2.84	-1.7	7.25	99.8	101
[17]	18.4	5.75	32.3	104	107
[18]	-13	-2.42	9.48	11.7	76.2
[19]	1.23	-6.26	-15.6	-23.2	9.49
[20]	-0.41	0.42	9.21	75.4	97.2
[21]	-5.54	-1.5	4.6	48.3	97.6
[22]	-1.65	-6.59	-10.1	-4.12	59.9
[23]	-14.2	-7.44	-6.63	8.32	85.8
[24]	-1.81	2.84	-0.69	61.7	82.7
[25]	-1.93	-2.44	21.2	93	103
[26]	3.17	-3.7	17.4	65.2	107
[27]	5.64	12.4	25.4	80.5	97.2
[28]	1.41	1.74	10.1	72.6	104
